Read-outs that look alike come from different tables or passages of the source.
Columns and labels:
A2780 = experiment: MTT viability assay, A2780; assay type: cell-based; details: Homo sapiens, 24 h
Description: (§1) Cell viability was assessed with the MTT test and with lactate dehydrogenase (LDH) release assay. As per the MTT method, normal and cancer cells were seeded into 96-well plates at high density and allowed to attach overnight. Then they were incubated in a medium containing 1.25 mg/mL of the MTT salt [3-(4,5-dimethylthiazol-2-yl)-2,5-diphenyltetrazolium bromide] for 24 h at 37°C. The generated formazan was solubilized with 20% sodium dodecyl sulphate and 50% N,N-dimethylformamide. Absorbance of the converted dye was recorded at 595 nm with a reference wavelength of 690 nm.
(§2) In order to examine the effect of 3,3′,4,4′-THS on the viability of ovarian cancer cells and to compare its activity with RVT, subconfluent cultures of A2780, OVCAR-3, and SKOV-3 cells were subjected to a wide range of stilbene concentrations (0–500 μM) for 24 h; then MTT and LDH release assays were performed.

[1] = MTT viability assay, HOSE cells; assay type: cell-based, human; details: human, percentage of control cells
Description: as §1, §2

[2] = MTT viability assay, HPMCs; assay type: cell-based, human; details: human, percentage of control cells
Description: as §1, §2

HPMCs [3] = experiment: MTT viability assay, HPMCs; assay type: cell-based, human; details: 24 h; for IC50: Homo sapiens, CalcuSyn; for concentration up to which viability was maintained: cytotoxicity tests (MTT and LDH release)
Description: as §1, §2

[4] = LDH release assay, HOSE cells; assay type: cell-based, human; details: human, percentage of control cells
HPMCs [5] = experiment: LDH release assay, HPMCs; assay type: cell-based, human; details: Homo sapiens, 24 h, CalcuSyn
SKOV-3 cells [6] = experiment: ROS production (H2DCFDA), SKOV-3; assay type: cell-based, human; details: 24 h, 10, 50, 100 μM tested
Description: (§3) ROS production was assessed in cells probed with a fluorescent dye, 2′,7′-dichlorodihydrofluorescein diacetate (H2DCFDA; 5 μM) (Molecular Probes, Eugene, USA) for 45 min at 37°C. Fluorescence intensity in cell lysates was monitored in a Victor2 spectrofluorometer with excitation at 485 nm and emission at 535 nm.

HPMCs [7] = experiment: ROS production (H2DCFDA), HPMCs; assay type: cell-based, human; details: 24 h, percentage of control cells
Description: as §3

[8] = system: superoxide dismutase (SOD); experiment: SOD activity in cell lysates, HPMCs; assay type: cell-based, human; details: 24 h, percentage of control cells
Description: (§4) Total activity of superoxide dismutase (SOD) was measured in cell lysates with a commercially available kit (R&D Systems Europe, Abingdon, UK), while the activity of catalase (CAT) was estimated by using the OxiSelect Catalase Activity Assay Kit (Cell Biolabs Inc., San Diego, CA, USA). Both assays were performed according to the manufacturer's instructions.

catalase (CAT) = experiment: CAT activity, A2780; assay type: cell-based, human; details: 24 h, 10, 50, 100 μM tested
Description: as §4

A2780 cells = experiment: Oxidative DNA damage (8-OH-dG immunoassay), A2780; assay type: cell-based, human; details: 24 h, 10, 50, 100 μM tested
Description: (§5) Oxidative DNA damage was assessed by measuring the 8-OH-dG concentration with a competitive immunoassay (Cell Biolabs Inc.), as per manufacturer's instructions. The efficiency of 8-OH-dG repair was estimated after cell recovery for 24 h in standard growth medium. In order to examine the activity of DNA glycosylase I, reverse transcription PCR was performed. RNA extraction was carried out using the RNA Bee (Tel-Test, Friendswood, Texas, USA) and purified according to the manufacturer's protocol. One microgram of RNA was reverse transcribed into cDNA with random hexamer primers, and cDNA was subjected to PCR. The profile of the replication cycles was denaturation at 94°C for 50 s, annealing at 58°C for 50 s, and polymerization at 72°C for 1 min. In each reaction, the expression of glyceraldehyde-3-phosphate dehydrogenase (GAPDH) served as the internal control. The primers used for PCR were as follows: hOGG1 forward, 5′-[…]-3′; hOGG1 reverse, 5′-TAGCCCGCCCTGTTCTTC-3′ designed to amplify a 551-bp region; GAPDH forward, 5′-CCATGGAGAAGGCTGGGG-3′; and GAPDH reverse 5′-[…]-3′ designed to amplify a 194-bp region (total number of cycles: 28). The PCR products were separated on 3% agarose gels stained with ethidium bromide and then visualized.

SKOV-3 cells [9] = experiment: Cell proliferation (CFDA SE), SKOV-3; assay type: cell-based, human; details: low-density cultures, 24 h, 10, 50, 100 μM tested
Description: Cell proliferative potential was determined using Cell Proliferation Kit I (PromoKine, Heidelberg, Germany) according to the manufacturer's instructions. In brief, cells were probed for 15 min with 5-(and 6)-carboxyfluorescein diacetate, a succinimidyl ester (CFDA SE; 2 μM) which diffuses into cells, covalently binds to proteins, and becomes fluorescent upon its hydrolysis by intracellular esterases. The fluorescence emitted by the cells (the dye is inherited by the daughter cells through successive divisions) was recorded using a Victor2 spectrofluorometer (Perkin-Elmer, Turku, Finland) with excitation at 435 nm and emission at 535 nm.

HPMCs [10] = experiment: SA-β-Gal activity (senescence), HPMCs; assay type: cell-based, human; details: 24 h, percentage of control cells
Description: The activity of SA-β-Gal in the cell extracts was quantified by measuring the rate of conversion of 4-methylumbelliferyl-β-D-galactopyranoside to 4-methylumbelliferone, as described in [19]. In order to visualize expression of the enzyme in the cancer cell cytoplasm, cytochemical staining for SA-β-Gal was performed according to Dimri et al..

caspase-8 = experiment: Caspase-8 activity in ovarian cancer cell lysates; assay type: cell-based, human; details: ovarian cancer cells (A2780, OVCAR-3, SKOV-3); 24 h
Description: Identification of apoptosis was based on the presence of DNA condensation in cells stained with a fluorescent dye, Hoechst 33258 (Molecular Probes, Eugene, OR). Cells were grown on Lab-Tek Chamber Slides (Nunc, Roskilde, Denmark), fixed with 4% formaldehyde for 10 min and washed twice with PBS. Then the cells were incubated with Hoechst 33258 (0.1 μg/mL) for 5 min in the dark. After washing with PBS, stained nuclei were observed and counted under a Zeiss Axio Observer D1 fluorescence microscope (Carl Zeiss, Jena, Germany). The activity of caspases 3, 8, and 9 was quantified in the cell lysates using specific colorimetric kits (Abcam, Cambridge, UK) according to the manufacturer's instructions.

[11] = system: DNA glycosylase I (hOgg1); experiment: DNA glycosylase I (hOgg1) mRNA expression (RT-PCR), ovarian cancer cells; assay type: cell-based, human; details: all three cancer cell lines; after preincubation with stilbene, 24-h recovery
Description: as §5

[12] = CalcuSyn, read-out: IC50, MTT assay

SMILES: Oc1ccc(/C=C/c2ccc(O)c(O)c2)cc1O [3,3′,4,4′-THS, 3,3′,4,4′-tetrahydroxy-trans-stilbene]
- viability at 10 µM (A2780; 10 μM, percentage of control cells): 20 ± 3%
- viability at 50 µM (A2780; 50 μM, percentage of control cells): 14 ± 3%
- viability at 100 µM (A2780; 100 μM, percentage of control cells): 13 ± 3%
- IC50 (A2780; [12]): 4 µM
- IC50 (A2780; read-out: IC50 (range over MTT and LDH release assays)): 4 to 6 µM
- viability at 24 h, 10 µM ([1]; 10 μM): 105 ± 2%
- viability at 24 h, 50 µM ([1]; 50 μM): 100 ± 4%
- viability at 24 h, 100 µM ([1]; 100 μM): 107 ± 2%
- viability at 24 h, 10 µM ([2]; 10 μM): 108 ± 14%
- viability at 24 h, 50 µM ([2]; 50 μM): 100 ± 4%
- viability at 24 h, 100 µM ([2]; 100 μM): 102 ± 2%
- IC50 (HPMCs [3]): 496 µM
- concentration up to which viability was maintained (HPMCs [3]): up to 300 μM
- viability at 24 h, 10 µM ([4]; 10 μM): 101 ± 2%
- viability at 24 h, 50 µM ([4]; 50 μM): 100 ± 4%
- viability at 24 h, 100 µM ([4]; 100 μM): 102 ± 2%
- IC50 (HPMCs [5]): 498 µM
- generation of ROS, effect in words (SKOV-3 cells [6]): remarkably stronger
- ROS (HPMCs [7]; 10 μM): 104 ± 4%
- ROS (HPMCs [7]; 50 μM): 102 ± 3%
- ROS (HPMCs [7]; 100 μM): 82 ± 1^∗# %
- SOD ([8]; 10 μM): 122 ± 4^∗# %
- SOD ([8]; 50 μM): 141 ± 3^∗# %
- SOD ([8]; 100 μM): 136 ± 4^∗# %
- CAT activity, effect in words (catalase (CAT)): did not change CAT activity
- concentration of 8-OH-dG (oxidative DNA damage), effect in words (A2780 cells): only concentrations of 50 and 100 μM were effective
- proliferation, effect in words (SKOV-3 cells [9]): evident at as low a concentration as 10 μM
- SA-β-Gal (HPMCs [10]; 10 μM): 76 ± 3^∗# %
- SA-β-Gal (HPMCs [10]; 50 μM): 104 ± 4%
- SA-β-Gal (HPMCs [10]; 100 μM): 99 ± 3%
- caspase-8 activation, effect in words (caspase-8): lack of activation of caspase-8
- hOgg1 mRNA expression during recovery, in words [11]: remarkably lower as compared to values characterizing cells subjected to RVT

SMILES: Oc1ccc(/C=C/c2cc(O)cc(O)c2)cc1 [RVT, 3,4′,5-trihydroxy-trans-stilbene, reference compound]
- IC50 (A2780; [12]): 48 µM
- IC50 (HPMCs [3]): 465 µM
- concentration up to which viability was maintained (HPMCs [3]): up to 300 μM
- IC50 (HPMCs [5]): 495 µM
- generation of ROS, effect in words (SKOV-3 cells [6]): stimulated the release of ROS
- ROS (HPMCs [7]; 10 μM): 108 ± 4^∗ %
- ROS (HPMCs [7]; 50 μM): 106 ± 11%
- ROS (HPMCs [7]; 100 μM): 105 ± 7%
- SOD ([8]; 10 μM): 110 ± 2^∗ %
- SOD ([8]; 50 μM): 112 ± 3^∗ %
- SOD ([8]; 100 μM): 113 ± 2^∗ %
- CAT activity, effect in words (catalase (CAT)): stimulated the enzyme at 10 μM in the OVCAR-3 cells, at 50 μM in the A2780, OVCAR-3, and SKOV-3 cells, and at 100 μM in the OVCAR-3 and SKOV-3 cells
- concentration of 8-OH-dG (oxidative DNA damage), effect in words (A2780 cells): induced DNA injury in A2780 and SKOV-3 at 50 and 100 μM
- proliferation, effect in words (SKOV-3 cells [9]): such a low dose was effective in SKOV-3 cultures only
- SA-β-Gal (HPMCs [10]; 10 μM): 100 ± 2%
- SA-β-Gal (HPMCs [10]; 50 μM): 102 ± 4%
- SA-β-Gal (HPMCs [10]; 100 μM): 100 ± 1%
- caspase-8 activation, effect in words (caspase-8): no effect

From article PMC4502315, “High Potency of a Novel Resveratrol Derivative, 3,3′,4,4′-Tetrahydroxy-trans-stilbene, against Ovarian Cancer Is Associated with an Oxidative Stress-Mediated Imbalance between DNA Damage Accumulation and Repair” (Oxidative Medicine and Cellular Longevity, 2015)
